Source: patent US20220280503A1, “COMPOSITIONS OF OPIOID ANTAGONISTS, IMPLANT DEVICES, AND TREATMENT METHODS FOR OPIOID USE DISORDER” (Delpor, Inc., priority 2019, published 2022)
Where a name gives a salt, the structure may show the parent alone.

Test: in vitro release of naltrexone from drug delivery devices (Example 1)
Assay type: physicochemical
Conditions: porous membrane about 5-20 mm^2 diffusible area, approximately 70% porosity; phosphate buffer, 37° C.
Description: Naltrexone base was compounded with anisic acid at acid:drug ratios of 0:[…] (molar basis), tableted with polyvinylpyrrolidone as a binder and stearic acid as a lubricant (12% and 2% of the final formulation mass, respectively), and loaded into delivery devices equipped with 0.1 micron polyvinylidene fluoride (DURAPORE®) membranes. In a subset of devices, approximately 75% of the available membrane surface area was blocked to measure the influence of surface area upon output rate. All devices were vacuum back-filled with phosphate buffer and transferred to jars containing a volume (˜100 mL) of the same buffer. The sealed jars were then incubated at 37° C., and small aliquots (˜500 μL) of receiving buffer were withdrawn at selected time points to quantify the released drug by high pressure liquid chromatography (HPLC).

For `O=C1CC[C@@]2(O)[C@H]3Cc4ccc(O)c5c4[C@@]2(CCN3CC2CC2)[C@H]1O5` [naltrexone HCl], the “in vitro elution rate of naltrexone from device” value was “over 50 mg/day”.
